Data taken from US7122360B1, “Polypeptides, polynucleotides and uses thereof” (University of Dundee, priority 1998, dated 2006).
Entries after “also recorded” stand apart in the source; their conditions may differ.

Experiments:
CREB and ATF1 [1] = assay: Phosphorylation of CREB (Ser133) and ATF1 (Ser63) in 293 cells, immunoblot; format: cell-based, human; conditions: for EGF-induced CREB phosphorylation: 5 μM Ro 318220, 10 μM SB 203580, 50 μM PD 98059, EGF 100 ng/ml; for UV radiation-induced phosphorylation of CREB and ATF1: 5 μM Ro 318220, 10 μM SB 203580, 50 μM PD 98059
Method: FIG. 10. […] 293 cells were pre-treated either in the presence or absence of 5 μM Ro 318220 (Ro), 10 μM SB 203580 (SB), 50 μM PD 98059 (PD), and then exposed to either (A, D) UV radiation (200 J/m^2, 30 min and then 30 min at 37° C.) (B, E) EGF (100 ng/ml, 15 min), (C) forskolin (20 μM, 15 min). The cells were lysed and proteins were separated on 10% acrylamide gels and immunoblotted using a phosphospecific antibody that recognised both CREB and ATF1 when phosphorylated on Ser133 and Ser63 respectively. The position of CREB and ATF1 on the blots is indicated.
Immunoblotting for phosphorylated CREB and ATF1. Cell extracts were prepared and immunoblotting of these carried out as described (Tan et al., 1996) using a phosphospecific antibody recognizing CREB phosphorylated on Ser 133 and ATF1 phosphorylated on Ser63 purchased from UBI (Lake Placid, USA). Detection of phosphorylated CREB and ATF1 proteins was performed using the enhanced chemiluminescence reagent (Amersham).

MSK1 [2] = assay: Arsenite and FGF-induced activation of MSK1 in SK-N-MC cells; format: cell-based; conditions: for FGF-induced activation of MSK1: 50 μM PD 98059, 10 μM SB 203580, FGF 50 ng/ml 15 min
Method: FIG. 14. […] After cell lysis aliquots were assayed for either MSK1 (A), MAPKAP-K1 (B), MAPKAP-K2 (C) after their immunoprecipitation from the lysates or immunoblotted for phosphorylation of CREB and ATF1 (D).
Cell Culture, stimulation and cell lysis.

MSK1 [3] = assay: LPS-induced activation of MSK1 in RAW 264 macrophages; format: cell-based, mouse; conditions: for LPS-stimulated phosphorylation of MSK1: 50 μM PD 98059 or 10 (M SB203580), FIG. 15; for LPS-induced activation of MSK1: LPS 100 ng/ml 1 h, 10 μM UO 126, 10 μM SB 203580, 5 TM Ro 318220
Method: (§1) FIG. 15. […] After cell lysis aliquots were assayed for either MSK1 (A), MAPKAP-K1 (B), MAPKAP-K2 (C) after their immunoprecipitation from the lysates or immunoblotted for phosphorylation of CREB and ATF1 (D).
FIG. 18. Effect of inhibitors on the LPS-induced activation of protein kinases in RAW 264 macrophages. Macrophages were incubated for 1 h in the presence or absence 10 μM UO 126 (U) and/or 10 μM SB 203580 (SB), or 5 TM Ro 318220 (Ro), then stimulated for 1 h with or without 100 ng/ml LPS in the continued presence or absence of the inhibitors. MSK1(A), MSK2 (B), MAPKAP-KI (C) and MAPKAP-K2 (D) were then assayed after immunoprecipitation from the lysates.
(§2) Cell culture and stimulation. RAW 264 macrophages were maintained in a 95% air/5% CO2 atmosphere in Dulbecco's modified Eagle's medium (DMEM) plus 10% (v/v) heat-inactivated foetal calf serum, 100 U/ml penicillin, […] streptomycin. The day before stimulation, the macrophages were plated at a density of 2×10^6 cells per 6 cm plate and 2 h before stimulation, the medium removed and replaced with 2 ml of DMEM. Where indicated, […] (10 TM) and/or PD 98059 (50 Tm), or U0126 (10 TM) or Ro 318220 (5 TM), were added 1 h before stimulation.
Cell lysis. After stimulation, the medium was aspirated and the cells were solubilized in 0.2 ml of ice cold lysis buffer (50 mM Tris-acetate pH 7.0, 1 mM EDTA, 1 mM EGTA, 1% (w/v) Triton X-100, 1 mM sodium orthovanadate, 10 mM sodium glycerophosphate, 50 mM NaF, 5 mM sodium pyrophosphate, 0.27 M sucrose, 2 TM microcystin-LR, 1 mM benzamidine, 0.1% (v/v) 2-mercaptoethanol and “complete” proteinase inhibitor cocktail—one tablet per 50 ml). The samples were then snap frozen in liquid nitrogen and stored in aliquots at −80° C. until analysis. Protein concentrations were determined according to [7].

CREB and ATF1 [4] = assay: CREB and ATF1 phosphorylation in RAW 264 macrophages, immunoblot; format: cell-based, mouse; conditions: for LPS-induced phosphorylation of CREB and ATF1: LPS 100 ng/ml 1 h
Method: as §1
FIG. 19. […] (A) Macrophages were stimulated for the times indicated with LPS (100 ng/ml). After cell lysis, aliquots of the lysate (30 Tg protein) were denatured in SDS, electrophoresed on a 10% polyacrylamide gel, transferred to a nitrocellulose membrane, and immunoblotted with a phospho-CREB antibody. The positions of the molecular mass markers glycogen phosphorylase (97 kDa), bovine serum albumin (66 kDa), ovalbumin (43 kDa) and carbonic anhydrase (30 kDa) are indicated. […] (B) As in A, except that the macrophages were incubated for 1 h in the presence or absence of 50 TM PD 98059 and/or 10 TM SB 203580 (SB), or 5 TM Ro 318220 (Ro), then stimulated for 1 h in the absence or presence of 100 ng/ml LPS and in the continued presence or absence of the inhibitors.
FIG. 22. […] (A) Macrophages were stimulated for 1 h with LPS (100 ng/ml) or for 15 min with forskolin (F) (20 TM) plus IBMX (10 TM). After cell lysis, aliquots of the lysate (30 Tg protein) were immunoblotted with a phospho-specific CREB antibody (see legend to FIG. 19 for details and molecular mass markers). (B) Macrophages were stimulated for 3 h with LPS (100 ng/ml), or forskolin (20 TM) plus IBMX (10 TM), and immunoblotting performed with a specific COX-2 antibody (materials & methods section). The marker proteins are as in FIG. 19.
as §2
Immunoblotting. For immunoblotting of CREB, nuclear cell extracts were prepared as described and immunoblotting performed using a phospho-specific antibody recognising CREB phosphorylated on Ser 133 and ATF1 phosphorylated on Ser 63. For immunoblotting of COX-2, cell lysate (30 Tg protein) was denatured in SDS, electrophoresed on 10% polyacrylamide gel, transferred to a nitrocellulose membrane, and immunoblotted with anti-COX-2 antibody (1.0 mg/ml). Detection of phosphorylated CREB and ATF1 and COX-2 was performed using the enhanced chemiluminescence reagent (ECL).

[5] = 50 TM PD 98059, 10 TM SB 203580, 5 TM Ro 318220

| Structure (SMILES) | EGF-induced CREB phosphorylation (CREB and ATF1 [1]) | FGF-induced activation of MSK1 (MSK1 [2]) | LPS-stimulated phosphorylation of MSK1 (MSK1 [3]) | LPS-induced phosphorylation of CREB and ATF1 (CREB and ATF1 [4]; [5]) | UV radiation-induced phosphorylation of CREB and ATF1 (CREB and ATF1 [1]) | phosphorylation of CREB and ATF1 induced by forskolin (CREB and ATF1 [1]; 5 μM Ro 318220, forskolin 20 μM, 15 min) | MSK1 activation in cells (MSK1 [2]; 5 μM Ro 318220, inhibitor removed on immunoprecipitation) | LPS-induced activation of MSK1 (MSK1 [3]) | forskolin-triggered phosphorylation of CREB and ATF-1, effect of inhibitors (CREB and ATF1 [4]; data not shown) | sodium arsenite-induced activation of MSK1 (MSK1 [2]; 50 μM PD 98059, 10 μM SB 203580, arsenite 0.5 mM 15 min) | LPS-induced phosphorylation of CREB and ATF1 (CREB and ATF1 [4]; 50 TM PD 98059, 10 TM SB 203580, 5 TM Ro 318220, listed as SB203580) |
| --- | --- | --- | --- | --- | --- | --- | --- | --- | --- | --- | --- |
| COc1cccc(-c2cc(=O)c3ccccc3o2)c1N [PD 98059] | prevented | only partially suppressed | appear to inhibit | appear to inhibit; also recorded: partially inhibited |  |  |  |  |  |  |  |
| Cn1cc(C2=C(c3cn(CCCSC(=N)N)c4ccccc34)C(=O)NC2=O)c2ccccc21 [Ro 318220] | largely inhibited |  |  | completely prevents | largely inhibited | unaffected | does not affect MSK1 activation | does not affect | not suppressed |  |  |
| C[S+]([O-])c1ccc(-c2nc(-c3ccncc3)c(-c3ccc(F)cc3)[nH]2)cc1 (stereo not shown) [SB 203580] | not SB203580 | only partially suppressed | appear to inhibit | partially inhibited | inhibited |  |  | only inhibited partially |  | prevented | appear to inhibit |
